Assay results: paper PMC4654778 (Clinical cancer research : an official journal of the …, 2012)

Key:
FGFR-1 = FGFR-1 (Homo sapiens, UniProt P11362); format: cell-based
FGFR-4 = FGFR-4 (Homo sapiens, UniProt P22455, G388R); format: cell-based
Sequence of FGFR-4 (P22455 22-802 G388R): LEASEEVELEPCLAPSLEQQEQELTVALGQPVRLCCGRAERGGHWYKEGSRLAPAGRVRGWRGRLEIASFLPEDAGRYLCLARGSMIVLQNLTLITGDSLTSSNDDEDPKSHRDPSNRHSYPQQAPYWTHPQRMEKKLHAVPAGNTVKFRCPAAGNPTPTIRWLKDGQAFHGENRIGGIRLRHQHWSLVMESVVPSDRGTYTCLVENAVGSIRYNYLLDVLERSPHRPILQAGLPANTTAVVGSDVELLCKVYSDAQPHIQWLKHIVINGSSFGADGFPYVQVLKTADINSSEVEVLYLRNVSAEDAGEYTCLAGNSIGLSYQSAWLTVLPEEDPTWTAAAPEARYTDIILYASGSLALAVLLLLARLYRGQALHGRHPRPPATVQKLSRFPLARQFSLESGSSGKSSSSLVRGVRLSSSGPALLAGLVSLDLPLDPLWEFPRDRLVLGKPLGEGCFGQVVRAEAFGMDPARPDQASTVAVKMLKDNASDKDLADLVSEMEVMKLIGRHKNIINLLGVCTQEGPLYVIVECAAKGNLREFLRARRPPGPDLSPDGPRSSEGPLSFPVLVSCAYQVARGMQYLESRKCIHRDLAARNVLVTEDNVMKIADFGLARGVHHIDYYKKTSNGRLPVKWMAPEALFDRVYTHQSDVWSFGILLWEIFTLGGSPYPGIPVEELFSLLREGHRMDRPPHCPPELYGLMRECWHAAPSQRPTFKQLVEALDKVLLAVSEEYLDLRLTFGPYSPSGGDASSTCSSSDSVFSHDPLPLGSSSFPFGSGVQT

Sequence of FGFR-1 (P11362 22-822): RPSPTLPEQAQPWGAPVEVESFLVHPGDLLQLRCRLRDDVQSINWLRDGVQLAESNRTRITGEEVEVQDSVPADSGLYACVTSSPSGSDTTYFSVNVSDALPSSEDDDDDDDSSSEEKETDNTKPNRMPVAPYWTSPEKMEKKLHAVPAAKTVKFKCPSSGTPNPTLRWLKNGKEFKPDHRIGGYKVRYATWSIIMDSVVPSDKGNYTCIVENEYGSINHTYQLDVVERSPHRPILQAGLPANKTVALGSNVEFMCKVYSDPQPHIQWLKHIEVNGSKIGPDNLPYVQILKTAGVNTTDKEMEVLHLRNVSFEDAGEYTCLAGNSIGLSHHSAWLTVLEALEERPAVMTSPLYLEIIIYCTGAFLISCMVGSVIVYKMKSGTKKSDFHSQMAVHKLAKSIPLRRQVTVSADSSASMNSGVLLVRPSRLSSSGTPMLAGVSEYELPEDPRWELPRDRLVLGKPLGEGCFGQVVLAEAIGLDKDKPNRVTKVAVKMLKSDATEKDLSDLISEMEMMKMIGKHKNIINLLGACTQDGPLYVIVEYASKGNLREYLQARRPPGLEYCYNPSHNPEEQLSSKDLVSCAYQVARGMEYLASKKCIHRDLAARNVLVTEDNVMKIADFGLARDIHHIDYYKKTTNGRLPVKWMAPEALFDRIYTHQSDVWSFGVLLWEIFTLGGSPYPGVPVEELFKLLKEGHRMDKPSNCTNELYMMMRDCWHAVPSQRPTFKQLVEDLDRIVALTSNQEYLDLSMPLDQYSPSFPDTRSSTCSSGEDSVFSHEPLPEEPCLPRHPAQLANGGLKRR

Substance: AZ8010
- % inhibition at 100 nM (FGFR-1): 86
- % inhibition at 100 nM (FGFR-4): 75
